In ChEMBL document CHEMBL1772979, “SAR studies on a series of N-benzyl-4-heteroaryl-1-(phenylsulfonyl)piperazine-2-carboxamides: potent inhibitors of the polymerase enzyme (NS5B) of the hepatitis C virus” (Bioorg Med Chem Lett, 2011):

Experiments:
[1] = tested on: Hepatitis C virus; experiment: Antiviral activity against Hepatitis C virus subtype 1b by cell based replicon assay; assay type: functional, organism-based, Hepacivirus hominis, genotype 1b
[2] = tested on: Hepatitis C virus; experiment: Antiviral activity against Hepatitis C virus subtype 1a by cell based replicon assay; assay type: functional, organism-based, Hepacivirus hominis
[3] = tested on: Hepatitis C virus; experiment: Inhibition of Hepatitis C virus subtype 1b wild-type NS5B expressed in Escherichia coli BL21(DE3) assessed as decrease in [3H]-UTP incorporation using polyA template/biotin-labeled dT primer by SPA method
[4] = Inhibition of Hepatitis C virus subtype 1a wild-type NS5B expressed in Escherichia coli BL21(DE3) assessed as decrease in [3H]-UTP incorporation using polyA template/biotin-labeled dT primer by SPA method
[5] = tested on: Hepatitis C virus; experiment: Antiviral activity against Hepatitis C virus expressing NS5B Y452H mutant by cell based replicon assay; assay type: functional, organism-based, Hepacivirus hominis
[6] = Hepatitis C virus, genotype 1b, read-out: EC50
[7] = Hepatitis C virus, subtype 1a, read-out: EC50

Structure (SMILES) | EC50 [1, 6] | EC50 [2, 7] | other results
COc1cc(N2CCN(S(=O)(=O)c3cccc(-c4ccc(F)cc4)c3)C(C(=O)NCc3ccc(OC(F)(F)F)cc3)C2)nc(OC)n1 (racemic) |  |  | EC50 [1]: Not Active; EC50 [2]: Not Active
O=C(O)c1cnc(N2CCN(S(=O)(=O)c3ccc(OC(F)(F)F)cc3)C(C(=O)NCc3ccc(OC(F)(F)F)cc3)C2)cn1 (racemic) |  |  | EC50 [1]: Not Active; EC50 [2]: Not Active
CCc1ccc(S(=O)(=O)N2CCN(c3cc(OC)nc(OC)n3)CC2C(=O)N(C)Cc2ccccc2)cc1 (racemic) | > 50000 nM | > 50 µM | 
O=C(O)c1ccc(N2CCN(S(=O)(=O)c3ccc(OC(F)(F)F)cc3)C(C(=O)NCc3ccc(OC(F)(F)F)cc3)C2)nn1 (racemic) |  |  | EC50 [1]: Not Active; EC50 [2]: Not Active
COc1cc(N2CCN(S(=O)(=O)c3ccc(OC)c(OC)c3)C(C(=O)NCc3ccc(OC(F)(F)F)cc3)C2)nc(OC)n1 (racemic) | 1100 nM | 13 µM | 
CCc1ccc(S(=O)(=O)N2CCN(c3cc(OC)nc(OC)n3)C[C@H]2C(=O)NCc2ccc(OC)cc2)cc1 | 10100 nM | 14.1 µM | 
CCc1ccc(S(=O)(=O)N2CCN(c3cc(OC)nc(OC)n3)CC2C(=O)NCc2ccccc2Cl)cc1 (racemic) | 3700 nM | > 50 µM | 
CCC(C)(C)NC(=O)c1ccc(N2CCN(S(=O)(=O)c3ccc(OC(F)(F)F)cc3)C(C(=O)NCc3ccc(OC(F)(F)F)cc3)C2)nn1 (racemic) | 43 nM | 0.46 µM | 
COc1cc(N2CCN(S(=O)(=O)c3ccc(OC(F)(F)F)cc3)C(C(=O)NCc3ccc(OC(F)(F)F)cc3)C2)nc(OC)n1 (racemic) | 700 nM | 8.1 µM | 
CCc1ccc(S(=O)(=O)N2CCN(c3cc(OC)nc(OC)n3)CC2C(=O)NCc2ccc(OC(F)(F)F)cc2)cc1 (racemic) | 500 nM | 9.2 µM | 
CCc1ccc(S(=O)(=O)N2CCN(c3cc(OC)nc(OC)n3)C[C@@H]2C(=O)NCc2ccc(OC)cc2)cc1 | 900 nM | 6.2 µM | 
COc1cc(N2CCN(S(=O)(=O)c3cccc(C(F)(F)F)c3)C(C(=O)NCc3ccc(OC(F)(F)F)cc3)C2)nc(OC)n1 (racemic) | 6200 nM | 53 µM | 
CCc1ccc(S(=O)(=O)N2CCN(c3cc(OC)nc(OC)n3)CC2C(=O)NCc2ccccc2)cc1 (racemic) | 8800 nM |  | EC50 [2]: Not Active
CCc1ccc(S(=O)(=O)N2CCN(c3cc(OC)nc(OC)n3)CC2C(=O)NCC2CC2)cc1 (racemic) |  |  | EC50 [1]: Not Active; EC50 [2]: Not Active
CCc1ccc(S(=O)(=O)N2CCN(c3cc(OC)nc(OC)n3)CC2C(=O)NCc2ccc(Cl)cc2)cc1 (racemic) | 2100 nM | 30.8 µM | 
COc1cc(N2CCN(S(=O)(=O)c3ccccc3)C(C(=O)NCc3ccc(OC(F)(F)F)cc3)C2)nc(OC)n1 (racemic) | 20300 nM |  | EC50 [2]: Not Active
COc1cc(N2CCN(S(=O)(=O)c3ccc(-c4ccccc4)cc3)C(C(=O)NCc3ccc(OC(F)(F)F)cc3)C2)nc(OC)n1 (racemic) | 2400 nM | 56 µM | 
COc1cc(N2CCN(S(=O)(=O)c3ccc(C(F)(F)F)cc3)C(C(=O)NCc3ccc(OC(F)(F)F)cc3)C2)nc(OC)n1 (racemic) | 1200 nM | 13 µM | 
COc1cc(N2CCN(S(=O)(=O)c3ccccc3F)C(C(=O)NCc3ccc(OC(F)(F)F)cc3)C2)nc(OC)n1 (racemic) |  |  | EC50 [1]: Not Active; EC50 [2]: Not Active

Structure (SMILES) | EC50 [1, 6] | EC50 [2, 7] | other results
CCc1ccc(S(=O)(=O)N2CCN(c3cc(OC)nc(OC)n3)CC2C(=O)NCc2ccc(C)cc2)cc1 (racemic) | 1700 nM | 20.5 µM | 
CCc1ccc(S(=O)(=O)N2CCN(c3cc(OC)nc(OC)n3)CC2C(=O)NCc2ccc(OC)cc2)cc1 (racemic) | 2200 nM | 23 µM | IC50 [3]: 300 nM; IC50 [4]: 12.5 µM
CNC(=O)c1cnc(N2CCN(S(=O)(=O)c3ccc(OC(F)(F)F)cc3)C(C(=O)NCc3ccc(OC(F)(F)F)cc3)C2)cn1 (racemic) | 220 nM | 2.23 µM | 
CCc1ccc(S(=O)(=O)N2CCN(c3cc(OC)nc(OC)n3)CC2C(=O)NCc2ccc(OC)c(OC)c2)cc1 (racemic) | 900 nM | 14.6 µM | 
CNC(=O)c1ccc(N2CCN(S(=O)(=O)c3ccc(OC(F)(F)F)cc3)C(C(=O)NCc3ccc(OC(F)(F)F)cc3)C2)nn1 (racemic) | 20 nM | 0.33 µM | 
CC[C@H](C)NC(=O)c1ccc(N2CCN(S(=O)(=O)c3ccc(OC(F)(F)F)cc3)[C@@H](C(=O)NCc3ccc(OC(F)(F)F)cc3)C2)nn1 |  |  | IC50 [3]: 13 nM; EC50 [5]: 400 nM
COC(=O)c1ccc(N2CCN(S(=O)(=O)c3ccc(OC(F)(F)F)cc3)C(C(=O)NCc3ccc(OC(F)(F)F)cc3)C2)nn1 (racemic) | 380 nM | 3.9 µM | 
COC(=O)c1cnc(N2CCN(S(=O)(=O)c3ccc(OC(F)(F)F)cc3)C(C(=O)NCc3ccc(OC(F)(F)F)cc3)C2)cn1 (racemic) | 140 nM | 1.6 µM | 
COc1cc(N2CCN(S(=O)(=O)c3ccc(F)cc3)C(C(=O)NCc3ccc(OC(F)(F)F)cc3)C2)nc(OC)n1 (racemic) | 8100 nM |  | EC50 [2]: Not Active
CC(C)NC(=O)c1ccc(N2CCN(S(=O)(=O)c3ccc(OC(F)(F)F)cc3)[C@@H](C(=O)NCc3ccc(OC(F)(F)F)cc3)C2)nn1 | 8 nM | 0.139 µM | 
COc1cc(N2CCN(S(=O)(=O)c3cccc(OC(F)(F)F)c3)C(C(=O)NCc3ccc(OC(F)(F)F)cc3)C2)nc(OC)n1 (racemic) | 5300 nM | 58 µM | 
COc1cc(N2CCN(S(=O)(=O)C3CCCCC3)C(C(=O)NCc3ccc(OC(F)(F)F)cc3)C2)nc(OC)n1 (racemic) |  |  | EC50 [1]: Not Active; EC50 [2]: Not Active
CCc1ccc(S(=O)(=O)N2CCN(c3cc(OC)nc(OC)n3)CC2C(=O)NCc2ccc(Cl)cc2Cl)cc1 (racemic) | 2400 nM | > 50 µM | 
CCc1ccc(S(=O)(=O)N2CCN(c3cc(OC)nc(OC)n3)CC2C(=O)NCc2ccc(OC)cc2OC)cc1 (racemic) | 1200 nM | 12.4 µM | 
CCc1ccc(S(=O)(=O)N2CCN(c3cc(OC)nc(OC)n3)CC2C(=O)NCc2ccc(-c3cccs3)cc2)cc1 (racemic) | 1200 nM | 47 µM | 
COc1ccc(S(=O)(=O)N2CCN(c3cc(OC)nc(OC)n3)CC2C(=O)NCc2ccc(OC(F)(F)F)cc2)cc1 (racemic) | 5900 nM | 64 µM | 
COc1cc(N2CCN(S(=O)(=O)c3cccc(C)c3)C(C(=O)NCc3ccc(OC(F)(F)F)cc3)C2)nc(OC)n1 (racemic) | 1400 nM | 41 µM | 
CCc1ccc(S(=O)(=O)N2CCN(c3cc(OC)nc(OC)n3)CC2C(=O)NCc2c(C)nn(-c3ccccc3)c2C)cc1 (racemic) | 2100 nM | 20.8 µM | 
CNC(=O)c1ccc(N2CCN(S(=O)(=O)c3ccc(OC(F)(F)F)cc3)[C@@H](C(=O)NCc3ccc(OC(F)(F)F)cc3)C2)nn1 | 7 nM | 0.22 µM | 
